According to patent publication US12410185B2, “Compounds targeting mutant calreticulin” (MYELOPRO DIAGNOSTICS AND RESEARCH GmbH, priority 2018, dated 2025):

Columns and labels:
[1] = tested on: mutant calreticulin; test: Western blot analysis of Ba/F3-MPL cell lines; assay type: cell-based, mouse; settings: 20 uM, 24 hours, heterozygous and homozygous mutant cell lines
Description: (§1) 2 million Ba/F3-MPL CALR WT or mutant cells were treated with hematoxylin or the equivalent volume of DMSO in a total volume of 15 ml of RPMI media in T75 flasks (Thermal Fisher Scientific). Cells were collected and washed with PBS before being lysed in whole cell lysis buffer containing 20 mM HEPES, 20% glycerol, 50 mM KCl, 400 mM NaCl, 1 mM EDTA, 1 mM DTT, 5 mM Na orthovanadate, 0.5% NP40, 0.1% Tween 20, supplemented with cOmplete™, Mini, EDTA-free Protease Inhibitor Cocktail (Sigma) and PhosSTOP™ (Sigma). Samples were rotated at 4° C. for 20 min prior to centrifugation at […] for 20 min. The soluble fraction of the sample was collected. Protein concentration was quantified by the Bio-Rad Protein Assay (Bio-Rad) according to the manufacturer's instructions and measured by a SpectraMax Microplate Reader (Molecular Devices). Equal amounts of protein were loaded for 8% or 10% SDS-polyacrylamide gel electrophoresis prior to transfer to Amersham™ Protran® nitrocellulose membranes at 35V, 4° C. overnight. Membranes were then blocked by 5% bovine serum albumin fraction V (Sigma) or milk. Mutant calreticulin was detected by a polyclonal rabbit antibody against the mutant specific C-terminal peptide (Myelopro). The other primary antibodies used were as follows: Calregulin Antibody (F-4)(sc-373863 Santa Cruz), Anti-HSC70(B-6) (J2212, Santa Cruz), Anti-Stat5 (N20)(L1112, Santa Cruz), anti-pYSTAT5 (Tyr694)(71-6900, Life Technologies), anti-TPOR/cMpl (#6944, Millipore), Cleaved PARP (Asp214) (#9548, Cell Signaling). HRP-linked anti-mouse and anti-rabbit antibodies (NA931/4, GE Healthcare Life Sciences) were used as secondary antibodies. Clarity™ Western ECL Blotting Substrates (Biorad) were used for the chemiluminescence detection method.
(§2) To confirm that the cytotoxic selectivity of hematoxylin in CALR mutant cell lines is due to a specific effect on mutant calreticulin, Ba/F3-MPL CALR WT and mutant cell lines were treated with the compound for 24 hours. […]

[2] = biological target: T1, mutant calreticulin (Mus musculus, UniProt P14211); test: Western blot analysis of Ba/F3-MPL cell lines; assay type: cell-based; settings: time-course
T1 construct: endogenous in cells; host or cells: Ba/F3-MPL CALR WT/del79 (heterozygous) and CALR del37/del37 (homozygous) cell lines and their hematoxylin-resistant clones
T1 sequence (P14211 with tags, fused parts or gaps, stated change not applied): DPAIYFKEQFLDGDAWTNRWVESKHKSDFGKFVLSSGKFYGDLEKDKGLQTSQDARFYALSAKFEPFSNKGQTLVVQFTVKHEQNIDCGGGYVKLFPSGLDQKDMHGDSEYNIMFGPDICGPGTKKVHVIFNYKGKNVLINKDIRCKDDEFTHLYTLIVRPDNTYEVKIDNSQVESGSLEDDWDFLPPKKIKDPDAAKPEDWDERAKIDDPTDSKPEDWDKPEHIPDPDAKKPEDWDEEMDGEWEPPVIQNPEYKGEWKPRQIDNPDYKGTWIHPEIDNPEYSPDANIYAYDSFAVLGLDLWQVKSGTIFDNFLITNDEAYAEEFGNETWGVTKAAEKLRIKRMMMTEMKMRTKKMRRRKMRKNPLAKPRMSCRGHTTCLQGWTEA
Description: as §1, §2

[3] = tested on: CALR expression (mRNA); test: Real-time PCR analysis of Ba/F3-MPL cell lines; assay type: cell-based, mouse; settings: 20 uM, 24 h
Description: FIG. 19: Real-time PCR analysis of Ba/F3-MPL cell lines after a 24 h treatment with hematoxylin. Ba/F3-MPL CALR WT, CALR homozygous mutant del37/del37 cell line were treated with 20 uM hematoxylin or an equivalent amount of DMSO as control for 24 h before cell collection and RNA extraction. **P<0.01; ***P<0.001
1 million cells from each sample were collected and washed with PBS twice. RNA samples were extracted by using the RNeasy Mini Kit (Qiagen). Taqman® Gene Expression Assays (Mm01545399_m1) was used to quantify the expression of CALR, and the real-time PCR reaction was performed using a 7500 Fast Real-Time PCR machine (Applied Biosystems™). Statistical test was calculated by Graphpad Prism 7.0 using the two-tailed Student's t test.

[4] = tested on: CD34+ cells from CALR mutated patients; test: colony formation assay; assay type: cell-based, human; settings: 40 uM hematoxylin vs DMSO
Description: CD34-positive cells from healthy controls and CALR mutant patients were isolated by EasySep™ Human CD34 Positive Selection Kit (#18056; [sequence] Technologies) according to the manufacturer's instructions. StemSpan™ SFEM II (#09655 or #17856; [sequence] Technologies) supplemented with 1× StemSpan™ CD34+ Expansion Supplement (#02691; [sequence] Technologies) was used to culture and expand the isolated CD34-positive cells, preferably for no more than 8 days before experiments or storage. 1000 human CD34-positive cells were plated in 1 ml of Methocult classic medium ([sequence] Technologies, #H4434) with 40 uM hematoxylin or DMSO control. Cells were incubated for 14 days before colony counting. Statistical test was calculated using two-way ANOVA with Sidak's multiple comparisons test.

[5] = tested on: Ba/F3-MPL CALR mutated cell line; test: apoptosis assay by Annexin V/PI staining; assay type: cell-based, mouse; settings: 20 uM, 24 h
Description: (§3) Ba/F3-MPL CALR wild-type and mutant cell lines were treated with hematoxylin at 20 uM or the equivalent volume of DMSO for 24 h before collection. Annexin V Apoptosis Detection Kit (eBioscience, #88-8007-74) was used based on the manufacturer's instructions. 5 ul of Propidium Iodide Staining Solution (Invitrogen, #00-6990-50) was added to each sample for 10 min before being analyzed with the BD LSRFortessa™ cell analyzer without washing.

[6] = tested on: Ba/F3-MPL CALR wild-type control; test: apoptosis assay by Annexin V/PI staining; assay type: cell-based, mouse; settings: 20 uM, 24 h
Description: as §3

[7] = tested on: UT-7-TPO mutant cell lines; test: 72 h dose response test, CellTiter-Glo cell viability assay; assay type: cell-based; settings: UT-7-TPO cell lines, mutant vs wild-type
Text: Among 140.000 structures, a list of compounds with the highest binding energy and specificity towards calreticulin was generated. Relying on compounds that were either commercially available or available from the DTP Databases of the National Cancer Institute (NCI), a docking compound library including 41 compounds was assembled, […] CALR cell lines (FIGS. 5 and 6). […] Two hits were identified as preferentially inhibiting mutant CALR cell line growth. […] Therefore, hematoxylin and derivatives thereof were used for further testing.

[8] = tested on: hematoxylin-resistant Ba/F3-MPL CALR mutant cell lines; test: dose response test in hematoxylin-resistant cell lines; assay type: cell-based, mouse; settings: lines selected under 20 uM hematoxylin for 4 weeks
Description: FIG. 21: Dose response of hematoxylin in Ba/F3-MPL resistant cell lines. Ba/F3-MPL CALR del79/WT and Ba/F3-MPL CALR del37/del37 were cultured with hematoxylin at a concentration of 20 uM for 4 weeks. CALR del79/WT resistant clone 1 and CALR del37/del37 resistant clone were cultured without cytokine. CALR del79/WT resistant clone 2 were cultured with 5% TPO.
Ba/F3-MPL CALR del79/WT and CALR del37/del37 cell lines were cultured with 20 uM of hematoxylin with or without 5% TPO continuously for 4 weeks. The cells were passaged every 3 days and seeded at 0.5 million per well in 6-well plates with addition of fresh hematoxylin and cytokine.

Oc1cc2c(cc1O)[C@@H]1c3ccc(O)c(O)c3OC[C@]1(O)C2 [hematoxylin, Hematoxylin]
mutant calreticulin protein level [1]: striking down-regulation
mutant calreticulin and MPL protein level ([2]; 8-hour time point): more drastic reduction
time to start of decrease of mutant calreticulin and MPL ([2]; Ba/F3-MPL CALR WT/del79): 4 h
magnitude of change (up-regulation) of wild-type and mutant CALR mRNA expression [3]: around 1.3 fold
number of colony forming units [4]: significantly reduced
apoptotic cell numbers [5]: significant elevation of apoptotic cell numbers
apoptotic cell numbers [6]: not in the wild-type control
hypersensitivity of mutant cell lines to the compound [7]: hypersensitivity of mutant cell lines to the compound could be reproduced
viability of resistant cell lines in response to the treatment [8]: Increased viability
